Measurements as given in patent US20090111177A1, “Maintenance of Embryonic Stem Cells by the GSK-3 Inhibitor 6-Bromoindirubin-3'-Oxime” (THE ROCKEFELLER UNIVERSITY, priority 2003, published 2009).
“Also recorded” adds a separate entry of the source.

Key:
[1] = test system: Oct-3/4 and Nanog transcripts; assay: Northern analysis of HESCs; type: cell-based, human; conditions: 7 d
Method: Northern analysis. Total RNA was isolated from cells by using Qiashredder and RNAeasy mini kit (Qiagen). The extracted RNA sample was quantified by UV spectrophotometer, and qualified by the RNA Nano Lab chip (Agilent Technologies). Ten μg of total RNA was electrophoresed on 1% agarose/formaldehyde gel and transferred onto a nylon membrane (Stratagene). Probes specific for human Oct-4 and human Nanog were prepared by RT-PCR using gene specific primer pairs (shown below) and the template cDNA generated from undifferentiated H1 cells, and radio-labeled with ^32P-dCTP by Prime-it probe labeling kit (Stratagene). The membrane was hybridized with the labeled probe using Perfecthybri (Sigma) and subjected to detection by Phosphor Imager (Amersham Biosciences).

CJ-GFP cells (MESCs) = assay: Low-density culture of CJ-GFP MESCs without LIF, morphology; type: cell-based, mouse; conditions: 1 μM; 7 d plus 5 d at low density; data not shown for Me analogue
Method: Teratoma formation. We grew CJ-GFP cells at a low density (500 cells/cm^2) on gelatin-coated 10 cm dishes in medium containing 6-bromoindirubin-3′-oxime 1 μM for 7 d, then passaged cells at the same density and cultured under the same condition another 5 d to further enforce differentiation of cells.

cyclin D1 = cyclin D1 immunofluorescence in HESCs; type: cell-based, human; conditions: HESCs (BGN2); non-CM; 6-bromoindirubin-3′-oxime 1.0 μM or Wnt3a protein 100 ng; FIG. 7
Method: Immunofluorescence. HESCs were grown in conditioned medium (CM), non-CM, non-CM containing Me 6-bromoindirubin-3′-oxime (1.0 μM), non-CM containing 6-bromoindirubin-3′-oxime (1.0 μM) or non-CM containing recombinant mouse Wnt3a protein (100 ng/ml, R&D systems) for 5 d. Cells were fixed in 4% paraformaldehyde for 20 min at room temperature and incubated overnight at 4° C. with primary antibodies against cyclin D1 (Santa Cruz Technology, Santa Cruz, Calif.). Antigens were localized by using goat anti-rabbit IgG conjugated to Cy3 (Zymed laboratories).

Oct-3/4 = Oct-3/4 immunocytochemistry in HESCs; type: cell-based, human
Method: Cell culture. Human embryonic stem cells (HESCs) lines were provided by WiCell Research Institute (H1 line)^5 and BresaGen Inc. (BGN1 and BGN2 lines). H1 cells were cultivated on irradiated mouse embryonic fibroblasts (MEFs) in medium consisting of 80% DMEM/F12 medium, 20% knockout serum replacement (KSR), 1 mM L-glutamine, 1% non-essential amino acids, 0.1 mM β-mercaptoethanol, and 4 ng/ml basic FGF (all from Invitrogen). […] Subsequently, HESCs were cultured on Matrigel (BD biosciences) in medium conditioned by MEFs, and passaged several times until colonies became free from contaminating MEFs as described before^9.
Immunofluorescence. Cells were fixed in 4% paraformaldehyde for 20 min at room temperature and incubated overnight at 4° C. with primary antibodies against Oct-4 (BD Biosciences), β-catenin (BD Biosciences), Tuj-1 (BAbCO), cytokeratin (Sigma), glial fibrillary acidic protein, GFAP, (Dako), smooth muscle actin (Research Diagnostics Inc), α-fetoprotein (α-FP, Cell Sciences) and Tromal (Developmental Studies Hybridoma Bank). For nuclear localization analysis, the fixed samples were subjected to fluorescent digital confocal imaging analysis using a Zeiss LSM 510 confocal microscope (Carl Zeiss). For mouse embryonic tissue sections, mid gestation embryos were fixed in 4% paraformaldehyde followed by paraffin embedding and tissue sectioning. After deparaffinization, tissue sections were incubated with a GFP-specific antibody (Molecular Probe) at 4° C. overnight. Antigens were localized by using goat anti-mouse IgG conjugated to Cy3 or goat anti-rabbit IgG conjugated to Cy2 (Zymed laboratories). For the quantitative image analysis, fluorescent images from triplicate samples were taken by the Discovery1 system (Universal Imaging Corporation). The fluorescent objects were selected by the threshold function and evaluated in five regions of each well by quantification of pixel intensities and the object size by using MetaMorph software (Universal Imaging Corporation).

Rex-1 promoter [2] = assay: Rex-1 YFP reporter line CJRex-Y (imaging / FACS); type: cell-based, mouse; conditions: CJRex-Y cells, 5 d
Method: Generation of stable mouse ES lines. CJ7 ES cells were transfected with pRex-1-Venus, pTY or pCAG-HygEGFP by using Lipofectamine 2000 (Invitrogen) followed by G418 (Invitrogen) selection at 200 μg/ml (for CJRex-Y or CJ-TY) or hygromycine (Invitrogen) selection at 600 μg/ml (for CJ-GFP). Two weeks after the drug selection, a number of single colonies were picked up, expanded and used for the further analyses.
FACS analysis of MESCs. We cultured CJRex-Y cells at a low density (500 cells/cm^2) on gelatin-coated 10 cm dishes in mouse ES cell medium alone, medium containing LIF, medium conditioned from wild type L cells or medium conditioned from Wnt3a-L cells (ATCC) for 5 days. The Wnt3a conditioned medium was prepared according to the provider's protocol. Cells were harvested, resuspended in mouse ES medium and subjected to FACS analysis using FACSVantage SE system (BD Biosciences).

Rex-1 promoter [3] = assay: Rex-1 luciferase reporter assay in CJ7 cells; type: cell-based, mouse
From the text: Nat Biotechnol 20, 87-90), a small fragment containing the TCF binding sites and the cFos promoter in pTopFlash was excised by XbaI digestion, and cloned into pcDNA3-Venus in which Venus was introduced into the multiple cloning site between BamHI and EcoRI of the pcDNA3 vector (Invitrogen) whose CMV promoter was eliminated by BglII and HindIII digestion. […] To generate the Rex-1-Venus reporter construct, the Rex-1 promoter region was cloned into pcDNA3-Venus.
Luciferase assay. […] Test compounds were added 24 hrs after transfection. Following incubation for 24 hrs, cells were harvested, and analyzed by the dual luciferase reporter assay system (Promega) using Lumat (Berthold Technologies). Each value was standardized by Renilla luciferase activity.

MESCs = assay: Teratoma formation from treated MESCs in syngenic mice; type: in vivo, mouse; conditions: MESCs grown in 1 μM, subcutaneous injection into syngenic mice
Method: Teratoma formation. We grew CJ-GFP cells at a low density (500 cells/cm^2) on gelatin-coated 10 cm dishes in medium containing 6-bromoindirubin-3′-oxime 1 μM for 7 d, then passaged cells at the same density and cultured under the same condition another 5 d to further enforce differentiation of cells. […] 6-bromoindirubin-3′-oxime-treated cells (approximately 5×10^6 cells/mouse) were subcutaneously injected into the left flank of syngenic 129 background mice. After three to five weeks, the developed teratoma (approximately 20 mm in diameter) was excised, fixed in 4% paraformaldehyde and subjected to hematoxylin and eosin staining for histological examinations.

O=C1Nc2cc(Br)ccc2/C1=C1/Nc2ccccc2/C1=N\O [6-bromoindirubin-3′-oxime]
Nanog transcript level [1]: substantial level of Nanog transcripts was preserved | Oct-3/4 transcript level ([1]; compared to conditioned medium-treated cells): substantial level of the Oct-3/4 transcript was maintained | colony morphology of MESCs without LIF (CJ-GFP cells (MESCs)): still formed round tight colonies | cyclin D1 expression (cyclin D1): upregulated; also recorded: up-regulated cyclin D1 expression | Oct-3/4 expression at the cellular level (Oct-3/4; HESCs in non-conditioned medium, FIG. 4c): sustained Oct-3/4 expression | Oct-3/4 expression by quantitative imaging analysis (Oct-3/4; versus conditioned medium treatment, data not shown): comparable level of Oct-3/4 expression | colony morphology / cell shape (Rex-1 promoter [2]; FIG. 3b): more compact than those observed in LIF-treated cells | Rex-1 transcriptional (YFP reporter) activity (Rex-1 promoter [2]; absence of LIF): strong transcriptional activity | Rex-1 promoter activity (Rex-1 promoter [3]; CJ7 cells, compared to LIF-treated cells): substantial upregulation | Rex-1 transcriptional activation with dominant negative TCF-3 construct (Rex-1 promoter [3]; cells transfected with dominant negative TCF-3): largely abolished | teratoma formation, germ layer derivatives (MESCs): generated teratomas consisting of all three germ layer-derived tissues
